≈ marks a conversion by molar mass, not a printed value.
What was measured:
Assay type in all cases: functional
[1] = test system: Bacillus subtilis; assay: Antimicrobial activity against Bacillus subtilis MTCC 441 after 24 hrs by agar well diffusion method; details: for MIC: Bacillus subtilis, MTCC 441, 24 h
[2] = test system: Staphylococcus aureus; assay: Antimicrobial activity against Staphylococcus aureus MTCC 96 after 24 hrs by agar well diffusion method; details: for MIC: Staphylococcus aureus, MTCC 96, 24 h
[3] = test system: Escherichia coli; assay: Antimicrobial activity against Escherichia coli MTCC 1650 after 24 hrs by agar well diffusion method; details: for MIC: Escherichia coli, MTCC 1650, 24 h
[4] = test system: Pseudomonas aeruginosa; assay: Antimicrobial activity against Pseudomonas aeruginosa MTCC 1688 after 24 hrs by agar well diffusion method; details: for MIC: Pseudomonas aeruginosa, MTCC 1688, 24 h
[5] = test system: Aspergillus niger; assay: Antifungal activity against Aspergillus niger MTCC 1781 after 2 to 3 days by agar well diffusion method
[6] = test system: Candida albicans; assay: Antifungal activity against Candida albicans MTCC 227 after 2 to 3 days by agar well diffusion method

Molecule	inhibition zone (IZ) [1] [mm]	MIC [1] [µg/mL]	inhibition zone (IZ) [2] [mm]	MIC [2] [µg/mL]	inhibition zone (IZ) [3] [mm]	MIC [3] [µg/mL]	inhibition zone (IZ) [4] [mm]	MIC [4] [µg/mL]	inhibition zone (IZ) [5] [mm]	MIC ([5]; Aspergillus niger, MTCC 1781) [µg/mL]	inhibition zone (IZ) [6] [mm]	MIC ([6]; Candida albicans, MTCC 227) [µg/mL]	MIC [5] [µg/mL]	MIC [6] [µg/mL]
Cl.N#Cc1ccc(Nc2nc(NC3CCCC3)nc(NC3CCCC3)n2)cn1	12	6.25	12	6.25	10	6.25	12	12.5	12	25	12	25	–	–
Cc1ccc(Nc2nc(Nc3ccc(C)cc3)nc(Nc3ccc(C#N)nc3)n2)cc1.Cl	12	25	12	12.5	12	12.5	10	25	14	100	14	25	–	–
Cl.N#Cc1ccc(Nc2nc(Nc3ccc(F)cc3)nc(Nc3ccc(F)cc3)n2)cn1	10	25	12	25	14	25	12	50	12	25	12	25	–	–
Cl.N#Cc1ccc(Nc2nc(N3CCNCC3)nc(N3CCNCC3)n2)cn1	12	50	12	50	12	50	10	50	14	100	14	25	–	–
COc1cccc(Nc2nc(Nc3ccc(C#N)nc3)nc(Nc3cccc(OC)c3)n2)c1.Cl	10	12.5	12	6.25	14	6.25	12	12.5	12	25	12	25	–	–
CC(=O)N1CCN(c2nc(Nc3ccc(C#N)nc3)nc(N3CCN(C(C)=O)CC3)n2)CC1.Cl	12	50	12	50	12	50	10	50	14	100	14	25	–	–
Cl.N#Cc1ccc(Nc2nc(Nc3cc[nH]n3)nc(Nc3cc[nH]n3)n2)cn1	10	6.25	12	12.5	12	6.25	14	12.5	14	12.5	14	12.5	–	–
Cl.N#Cc1ccc(Nc2nc(NCCN3CCOCC3)nc(NCCN3CCOCC3)n2)cn1	10	25	12	50	14	25	12	25	14	50	12	25	–	–
Cl.N#Cc1ccc(Nc2nc(N3CCCC3)nc(N3CCCC3)n2)cn1	12	100	12	100	12	50	12	100	14	50	12	50	–	–
CN(C)CCNc1nc(NCCN(C)C)nc(Nc2ccc(C#N)nc2)n1.Cl	12	25	12	12.5	14	12.5	12	12.5	12	25	14	25	–	–
Cl.N#Cc1ccc(Nc2nc(N3CCN(C(=O)c4ccccc4)CC3)nc(N3CCN(C(=O)c4ccccc4)CC3)n2)cn1	10	12.5	12	12.5	12	25	14	25	12	50	14	50	–	–
Cl.N#Cc1ccc(Nc2nc(NCc3ccco3)nc(NCc3ccco3)n2)cn1	10	6.25	12	6.25	14	6.25	12	6.25	12	12.5	12	12.5	–	–
Cl.N#Cc1ccc(Nc2nc(NC3CCCCC3)nc(NC3CCCCC3)n2)cn1	12	6.25	12	6.25	12	6.25	10	6.25	14	12.5	14	12.5	–	–
NYSTATIN	–	–	–	–	–	–	–	–	20	–	20	–	6.25	6.25
Cl.N#Cc1ccc(Nc2nc(N3CCCCC3)nc(N3CCCCC3)n2)cn1	10	50	12	50	14	25	12	25	14	25	10	50	–	–
Cl.N#Cc1ccc(Nc2nc(N3CCN(c4ccccc4)CC3)nc(N3CCN(c4ccccc4)CC3)n2)cn1	10	6.25	12	6.25	12	6.25	10	6.25	14	25	14	25	–	–
CN1CCN(c2nc(Nc3ccc(C#N)nc3)nc(N3CCN(C)CC3)n2)CC1.Cl	12	12.5	12	12.5	12	12.5	10	12.5	12	50	10	50	–	–
CN[C@@H]1[C@H](O[C@H]2[C@H](O[C@H]3[C@H](O)[C@@H](O)[C@H](N=C(N)N)[C@@H](O)[C@@H]3N=C(N)N)O[C@@H](C)[C@]2(O)C=O)O[C@@H](CO)[C@H](O)[C@H]1O [STREPTOMYCIN]	22	6.25 (≈ 10.7 µM)	20	6.25 (≈ 10.7 µM)	22	6.25 (≈ 10.7 µM)	24	6.25 (≈ 10.7 µM)	–	–	–	–	–	–
COCCNc1nc(NCCOC)nc(Nc2ccc(C#N)nc2)n1.Cl	12	6.25	12	12.5	12	6.25	12	6.25	14	12.5	12	12.5	–	–
Cl.N#Cc1ccc(Nc2nc(N3CCOCC3)nc(N3CCOCC3)n2)cn1	12	50	12	50	12	50	10	50	14	100	14	50	–	–
